# Experimental data published in patent US12281180B2, “Peptoid-peptide macrocycles, pharmaceutical compositions and methods of using the same” (New York University, priority 2018, dated 2025).
# Numbered stars: 1 amine (or outer) side, 2 acyl side, 3 side chain; on linkers, the order of the positions; unused ones are H or OH. Square brackets hold non-standard residues; d marks the D form. Peptide text beside a SMILES is read from it. N(2-(2-PhOPh)Et)Gly = O=C(O)CNCCc1ccccc1Oc1ccccc1; Gly(N-3,5-(OMe)2-Ph) = COc1cc(NCC(=O)O)cc(OC)c1; X1 = COc1ccc([C@H](C)N(CC(=O)[*:2])[*:1])cc1; N((CH2)3OiPr)Gly = CC(C)OCCCNCC(=O)O
# How the values were obtained:
# [1] = tested on: Wnt signaling in zebrafish embryos; experiment: Zebrafish phenotypic assay of Wnt signaling (eye development); assay type: in vivo
# Description: Rescue of eye development in Wnt-activated zebrafish embryos by the hit oligomer macrocycle—To evaluate the efficacy of 13 in vivo, a zebrafish model was utilized. The relevance of the model for our studies is that zebrafish embryos with Wnt activating mutations in the AXIN gene, a component of the β-catenin destruction complex, fail to develop eyes or a forebrain. The phenotype can be recapitulated by treatment with an inhibitor (termed BIO) for another β-catenin destruction complex member, GSK3, in embryos at 6 hours post-fertilization (hpf). It would then be anticipated that 13 inhibits the chemically over-activated Wnt signal, and potentially rescue eye development. To test this compound BIO was added to zebrafish embryos at 6 hpf with and without 13 as described in FIG. 10A.
# Zebrafish Experiments The zebrafish phenotypic assay was conducted using wildtype zebrafish embryos seeded into a 96 well round bottom plate in 50 μl of blue zebrafish embryo media. At 50% epiboly, roughly 5.5 hours post fertilization, 50 ul of 30 μM cyclic peptoid compound was added. About 30 minutes later at shield stage, 50 μl 6 nM (3×) BIO was added. The embryos were then visualized for the presence of eyes and imaged at 30 hours post fertilization.
# Wnt signaling pathway = experiment: TOP-Flash Wnt luciferase reporter assay; assay type: cell-based; details: for IC50: TOP-Flash LNCaP-abl cells, siAPC 24 h then 24 h compound, read-out: IC50 for Wnt luciferase inhibition
# Description: The macrocycles were evaluated for their ability to inhibit the Wnt signaling pathway in cell culture. The macrocycles were administered at a concentration of 10 micromolar, and the activity was monitored with a luciferase reporter assay responsive to signaling through the Wnt pathway. […] The macrocycles were also observed to exert minimal cellular toxicity at the 10 micromolar concentration. […] Cells were incubated with 5 μM of peptoid macrocycles prior to co-IP.
# (§1) Compound testing and identification of a hit compound—Using a TOP-Flash Wnt luciferase reporter, 12 oligomers identified from in silico modeling for inhibitory activity (FIG. 6A) were tested. At […] concentration, all compounds had some level of Wnt inhibitory activity in cell culture, with varying degrees of efficacy. Also employed was a 3×-Androgen Response Element (ARE) luciferase reporter to measure the effect on AR activity. […] FIG. 2B depicts the predicted structure and contacts of the β-catenin: 13 complex.
# AR signaling = experiment: 3x-Androgen Response Element (ARE) luciferase reporter assay; assay type: cell-based; details: for IC50: 3xARE LNCaP-abl cells, 48 h compound, read-out: IC50 for inhibition of the AR luciferase reporter
# Description: as §1
# [2] = target: T1, β-catenin:TCF4 protein interaction (Homo sapiens, UniProt P35222); experiment: Co-immunoprecipitation of myc-TCF4 and endogenous β-catenin in HEK293 cells; assay type: cell-based; details: 10 μM, 48 hour treatment
# T1 construct: endogenous in cells; host or cells: HEK293 (β-catenin endogenous; myc-TCF4 transfected from addgene #32738)
# T1 sequence (P35222 2-781 limits assumed): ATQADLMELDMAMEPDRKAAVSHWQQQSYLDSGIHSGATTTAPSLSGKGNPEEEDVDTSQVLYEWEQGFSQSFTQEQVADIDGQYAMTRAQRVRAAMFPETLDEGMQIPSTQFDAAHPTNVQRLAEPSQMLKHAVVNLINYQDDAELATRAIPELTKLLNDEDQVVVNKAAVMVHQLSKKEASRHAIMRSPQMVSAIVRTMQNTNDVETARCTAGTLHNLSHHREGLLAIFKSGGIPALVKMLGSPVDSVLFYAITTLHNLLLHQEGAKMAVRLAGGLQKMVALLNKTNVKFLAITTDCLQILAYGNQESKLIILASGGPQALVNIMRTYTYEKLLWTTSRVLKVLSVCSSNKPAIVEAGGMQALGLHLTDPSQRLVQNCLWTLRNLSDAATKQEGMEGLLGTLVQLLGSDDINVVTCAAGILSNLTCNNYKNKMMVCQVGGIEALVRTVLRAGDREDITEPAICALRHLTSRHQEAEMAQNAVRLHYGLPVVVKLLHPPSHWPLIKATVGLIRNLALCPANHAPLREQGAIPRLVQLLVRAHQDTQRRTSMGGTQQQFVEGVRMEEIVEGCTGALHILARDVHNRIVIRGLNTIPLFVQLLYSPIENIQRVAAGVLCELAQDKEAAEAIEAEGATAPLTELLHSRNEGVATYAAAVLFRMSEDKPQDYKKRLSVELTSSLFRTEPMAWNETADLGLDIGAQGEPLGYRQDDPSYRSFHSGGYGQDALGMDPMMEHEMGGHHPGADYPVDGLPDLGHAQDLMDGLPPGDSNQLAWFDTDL
# Description: HEK293 cells were transiently transfected with a plasmid expressing full length, myc-tagged TCF4.
# Cell Culture LNCaP-abl and LNCaP-95 cells were cultured in indicator free RPMI 1640 media (Life) supplemented with 10% charcoal stripped FBS, 1% penn/strep, and 1% L-Glutamine. HEK-293 Cells were cultured in DMEM media (Life) supplemented with 10% FBS and 1% penn/strep. Luciferase assays were conducted using stably transfected TOP-flash and 3×ARE LNCaP-abl cell lines. For the Wnt pathway, TOP-Flash LNCaP-abl cells were treated with siAPC for 24 hours followed by 24 hours treatment with compound. For the AR-pathway, 3×ARE LNCaP-abl cells were treated for 48 hours with compound, with the addition of R1881 for the final 8 hours. Both were measured using the ONE-Glo detection kit (Promega) and reported data is standardized to the cell-titer control values. Co-immunoprecipitation was carried out using HEK293 cells transfected with either myc-TCF (addgene #32738) or myc-TCF dominant negative (addgene #32739) followed by 48 hours of treatment with compound. Cells were lysed using trition lysis buffer and 1 mg total protein was incubated overnight at 4 C with 40 μl anti-cMyc magnetic beads (Thermo). […] After 5 days of treatment the cell viability was measured with the CellTiter-Fluor Cell Viability Assay (Promega) and data is reported standardized to DMSO control.
# [3] = tested on: LNCaP-abl and LNCaP-95 cells; experiment: RT-qPCR of endogenous Wnt and AR target genes; assay type: cell-based; details: 10 μM, 24 hours
# Description: These cell lines were derived from androgen-sensitive LNCaP cells, and passaged in androgen-deprived media to mimic the development of castration resistance in patient tumors. mRNA from LNCaP-abl and LNCaP-95 cells treated with DMSO (vehicle) was isolated, 10 μM 13 and linear 13 for 24 hours to check the expression of endogenous Wnt and AR target genes (FIG. 8A). […] AR-V7 is particularly challenging to target as most AR antagonists target the ligand binding domain.
# Cell Culture LNCaP-abl and LNCaP-95 cells were cultured in indicator free RPMI 1640 media (Life) supplemented with 10% charcoal stripped FBS, 1% penn/strep, and 1% L-Glutamine. HEK-293 Cells were cultured in DMEM media (Life) supplemented with 10% FBS and 1% penn/strep. Luciferase assays were conducted using stably transfected TOP-flash and 3×ARE LNCaP-abl cell lines. For the Wnt pathway, TOP-Flash LNCaP-abl cells were treated with siAPC for 24 hours followed by 24 hours treatment with compound. For the AR-pathway, 3×ARE LNCaP-abl cells were treated for 48 hours with compound, with the addition of R1881 for the final 8 hours. Both were measured using the ONE-Glo detection kit (Promega) and reported data is standardized to the cell-titer control values. Co-immunoprecipitation was carried out using HEK293 cells transfected with either myc-TCF (addgene #32738) or myc-TCF dominant negative (addgene #32739) followed by 48 hours of treatment with compound. Cells were lysed using trition lysis buffer and 1 mg total protein was incubated overnight at 4 C with 40 μl anti-cMyc magnetic beads (Thermo). The beads were washed 3× with lysis buffer then boiled in 2× sample loading dye. SDS-PAGE and western blotting were performed using anti-myc (CST 2276) and anti-β-catenin (CST 8480). RT-qPCR was performed using RNA isolated with the RNEasy kit (Qiagen) from LNCaP-abl and LNCaP-95 cells after 24 hour treatment with 10 μM compound. The Verso cDNA synthesis kit (Thermo) with 1 μg total RNA was used, and qPCR data was collected using Fast SYBR Green Master Mix on a QuantiStudio 6 Flex (Life Technologies). 2D proliferation assays were conducted using 384 well plates seeded with 2000 cells/well LNCaP-abl or LNCaP-95 cells. After 5 days of treatment the cell viability was measured with the CellTiter-Fluor Cell Viability Assay (Promega) and data is reported standardized to DMSO control.
# LNCaP-abl spheroids = experiment: Spheroid 3D cell culture (PrestoBlue viability, spheroid area); assay type: cell-based
# Description: The effects on spheroid formation and growth were evaluated following treatment with DMSO, 13, or linear 13 administered at the time of seeding at low cell density in a 384 well plate. In a separate experiment, to test the impact on pre-formed spheroids, cells were treated five days after initial seeding. Spheroids from both experiments were grown for 22 days, with compound refreshed on days 5, 9, 13, 16, and 20. […] PrestoBlue was used to measure cell viability on day 22 (FIG. 9B). […] FIG. 9C-F depicts spheroid area over time based on size measurements from the images taken throughout the experiment.
# Spheroid 3D Cell Culture LNCaP-abl cells were seeded into 384 well ultra-low attachment plates (Corning), 1000 cells/well. Varying concentrations of compound were added either on the same day as seeding or on day 5. Media was changed every 3-4 days using a Biotek automated media exchanger. Images were taken using an ArraySca VTI (Thermo) on days 5, 9, 13, 16, 20, and 22. A final viability measurement was taken on day 22 using PrestoBlue reagent (Thermo).
# [4] = target: T2, β-catenin:TCF family interaction (Homo sapiens, UniProt P35222); experiment: Two-hybrid like assay of β-catenin:TCF family member interactions; assay type: cell-based
# T2 sequence (P35222 1-781): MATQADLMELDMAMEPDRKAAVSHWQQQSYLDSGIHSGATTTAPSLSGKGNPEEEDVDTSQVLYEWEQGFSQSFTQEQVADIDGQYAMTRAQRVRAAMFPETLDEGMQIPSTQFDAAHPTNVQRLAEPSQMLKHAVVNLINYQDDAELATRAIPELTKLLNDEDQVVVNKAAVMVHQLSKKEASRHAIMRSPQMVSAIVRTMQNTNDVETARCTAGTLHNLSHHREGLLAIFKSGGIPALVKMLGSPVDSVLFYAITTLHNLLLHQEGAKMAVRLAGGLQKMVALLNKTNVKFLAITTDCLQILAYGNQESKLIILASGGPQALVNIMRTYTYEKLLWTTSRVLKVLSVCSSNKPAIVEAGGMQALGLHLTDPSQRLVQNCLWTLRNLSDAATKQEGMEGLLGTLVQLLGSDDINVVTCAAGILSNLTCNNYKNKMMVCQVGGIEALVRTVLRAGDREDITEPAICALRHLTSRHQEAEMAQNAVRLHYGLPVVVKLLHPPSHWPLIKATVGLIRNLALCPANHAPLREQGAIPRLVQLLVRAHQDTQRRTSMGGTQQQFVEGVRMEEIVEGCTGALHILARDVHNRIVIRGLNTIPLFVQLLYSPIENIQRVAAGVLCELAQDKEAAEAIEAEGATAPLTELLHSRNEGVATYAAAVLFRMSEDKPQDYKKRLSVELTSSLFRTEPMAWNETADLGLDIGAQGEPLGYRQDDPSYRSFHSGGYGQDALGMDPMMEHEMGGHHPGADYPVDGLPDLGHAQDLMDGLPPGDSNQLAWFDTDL
# [5] = target: T3, E-cadherin:β-catenin interaction (Homo sapiens, UniProt P35222); experiment: Two-hybrid like assay, E-cadherin with β-catenin; assay type: cell-based
# T3 sequence (P35222 1-781): T2 sequence (P35222 1-781)
# [6] = target: β-catenin:TCF4 interaction (Homo sapiens, UniProt P35222); details: read-out: IC50 for inhibition of β-catenin binding to TCF4 N-terminal β-catenin binding domain; 5 nM His6-β-catenin
# [7] = 3 additional independent experiments, each
# [8] = first experiment, eight fish, BIO added at 6 hpf with or without 13
molecule,measurement,setting,value
"O=C1Nc2cc(Br)ccc2/C1=C1/Nc2ccccc2/C1=N\O [BIO, reference compound]",Fish that developed eyes,[1]; [7],0/8
same,Fish that developed eyes,[1]; [8],one of the eight fish
"COc1ccc([C@H](C)N2CC(=O)N[C@H](C)C(=O)N(CCc3ccccc3Oc3ccccc3)CC(=O)N(c3cc(OC)cc(OC)c3)CC(=O)N(CCCOC(C)C)CC(=O)N([C@@H](C)c3ccc(OC)cc3)CC2=O)cc1 [Compound 13] (cyclo([dA][N(2-(2-PhOPh)Et)Gly][Gly(N-3,5-(OMe)2-Ph)][N((CH2)3OiPr)Gly][X1][X1]))","Wnt inhibitory activity, TOP-Flash Wnt luciferase reporter","Wnt signaling pathway; 10 µM concentration, cell culture",more effective
same,IC50,Wnt signaling pathway,105 nM
same,"Inhibition of AR signaling, 3x-ARE luciferase reporter",AR signaling,more effective
same,IC50,AR signaling,1.02 µM
same,"β-catenin:TCF interaction by co-immunoprecipitation, compared to DMSO",[2],decreased
same,AR mRNA,[3],decreased
same,Cyclin D1 mRNA,[3],decreased
same,FKBP5 mRNA,[3],decreased
same,PSA mRNA,[3],decreased
same,Transcription of AR splice variant AR-V7,[3],decreased
same,Transcription of E-cadherin,[3],increased
same,cMYC mRNA,[3],decreased
same,Spheroid growth / area over time,"LNCaP-abl spheroids; 0.5 μM, added on day 0",slowed the growth
same,Spheroid formation / area over time,"LNCaP-abl spheroids; 20 μM, 10 μM, 5 μM, 2 μM and 1 μM, added on day 0 with seeding",prevented spheroid formation
same,Growth of preformed spheroids / area over time,"LNCaP-abl spheroids; at or above 2 μM, treatment started at day 5",stalled the growth of preformed spheroids
same,Spheroid growth / area over time,LNCaP-abl spheroids; between 0.001 µM and 0.1 μM,little effect
same,Fish that developed eyes,[1]; [7],8/8
same,Fish that developed eyes,[1]; [8],all the fish
same,Inhibition of TCF family interaction with β-catenin,[4],inhibits
same,Inhibition of E-cadherin interaction with β-catenin,[5],not
same,IC50,[6],5.44 µM
"NH2-D-Ala-N-mpp, N-dmp, N-ipp, N-Smpe, N-Smpe-OH [linear 13]",IC50,Wnt signaling pathway,3270 nM
same,IC50,AR signaling,7.63 µM
